Structures are written as SMILES. pIC50: −log10 of the molar value. Converted amounts (≈) assume the structure as drawn. Structures can show the parent of a compound that is named as a salt.

Data on 15 molecules can be found in US20170275275A1, “BENZENESULFONAMIDES USEFUL AS SODIUM CHANNEL INHIBITORS” (PFIZER INC., priority 2014, published 2017).

T1 sequence (Q15858 whole entry): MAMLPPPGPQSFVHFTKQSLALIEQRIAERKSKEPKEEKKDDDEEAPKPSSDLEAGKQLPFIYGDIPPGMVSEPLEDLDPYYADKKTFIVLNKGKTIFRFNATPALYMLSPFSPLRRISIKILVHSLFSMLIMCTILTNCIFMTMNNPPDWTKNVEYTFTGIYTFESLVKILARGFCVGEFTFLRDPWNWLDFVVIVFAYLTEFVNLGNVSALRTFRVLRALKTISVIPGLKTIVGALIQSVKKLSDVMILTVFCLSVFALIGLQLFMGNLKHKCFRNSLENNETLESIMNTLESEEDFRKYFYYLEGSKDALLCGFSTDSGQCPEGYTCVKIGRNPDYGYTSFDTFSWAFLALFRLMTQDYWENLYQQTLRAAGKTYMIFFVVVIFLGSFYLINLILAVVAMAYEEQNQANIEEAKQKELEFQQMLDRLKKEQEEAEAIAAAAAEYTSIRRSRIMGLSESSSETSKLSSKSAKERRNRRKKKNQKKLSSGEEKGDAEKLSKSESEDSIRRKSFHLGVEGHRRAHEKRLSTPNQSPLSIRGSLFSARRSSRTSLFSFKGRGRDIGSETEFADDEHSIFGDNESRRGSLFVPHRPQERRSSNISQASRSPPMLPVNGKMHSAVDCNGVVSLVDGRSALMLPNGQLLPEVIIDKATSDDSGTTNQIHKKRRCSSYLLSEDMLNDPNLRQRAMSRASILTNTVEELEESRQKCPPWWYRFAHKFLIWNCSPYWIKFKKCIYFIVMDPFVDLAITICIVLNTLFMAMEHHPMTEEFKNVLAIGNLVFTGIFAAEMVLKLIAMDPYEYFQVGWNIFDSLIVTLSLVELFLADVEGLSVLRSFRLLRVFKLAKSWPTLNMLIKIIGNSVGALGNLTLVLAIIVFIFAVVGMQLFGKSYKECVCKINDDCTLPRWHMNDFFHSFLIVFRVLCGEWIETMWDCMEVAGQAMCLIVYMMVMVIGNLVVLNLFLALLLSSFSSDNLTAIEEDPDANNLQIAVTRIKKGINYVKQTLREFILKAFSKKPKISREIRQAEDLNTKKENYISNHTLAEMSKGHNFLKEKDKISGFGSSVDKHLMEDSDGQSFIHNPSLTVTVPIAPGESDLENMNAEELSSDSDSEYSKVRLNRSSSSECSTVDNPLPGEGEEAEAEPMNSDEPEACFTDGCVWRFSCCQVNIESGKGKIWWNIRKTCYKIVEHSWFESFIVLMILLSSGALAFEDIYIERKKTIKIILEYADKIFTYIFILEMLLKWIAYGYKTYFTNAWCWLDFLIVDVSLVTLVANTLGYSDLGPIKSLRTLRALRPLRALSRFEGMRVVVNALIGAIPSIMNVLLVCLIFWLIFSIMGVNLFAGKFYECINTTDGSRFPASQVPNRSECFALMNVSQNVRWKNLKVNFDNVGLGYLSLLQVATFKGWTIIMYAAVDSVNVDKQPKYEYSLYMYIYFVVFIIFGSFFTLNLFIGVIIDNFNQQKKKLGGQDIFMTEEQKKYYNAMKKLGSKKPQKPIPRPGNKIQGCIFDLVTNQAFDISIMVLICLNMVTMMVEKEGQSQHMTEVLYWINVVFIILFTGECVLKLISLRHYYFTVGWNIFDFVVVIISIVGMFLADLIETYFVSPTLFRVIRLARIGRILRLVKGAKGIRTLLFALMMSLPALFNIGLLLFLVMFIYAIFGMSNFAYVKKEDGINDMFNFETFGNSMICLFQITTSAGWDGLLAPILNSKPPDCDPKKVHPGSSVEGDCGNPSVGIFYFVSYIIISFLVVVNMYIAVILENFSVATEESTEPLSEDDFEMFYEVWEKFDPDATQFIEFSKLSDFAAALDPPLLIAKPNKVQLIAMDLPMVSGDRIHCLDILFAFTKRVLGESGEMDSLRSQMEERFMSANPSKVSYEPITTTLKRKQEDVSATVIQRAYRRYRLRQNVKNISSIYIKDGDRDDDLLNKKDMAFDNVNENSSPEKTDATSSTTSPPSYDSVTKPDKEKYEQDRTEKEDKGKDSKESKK

Tested on in the first data set: not listed separately
The data set is described as follows: Aqueous solubility, shake-flask method. Format: physicochemical. Conditions: aqueous buffer, thermodynamic from solid, pH 7.4, shaken 18 hours at room temperature. How it is done: Aqueous solubility data were generated via a “shake-flask” method where an excess of compound was added to a buffer (typically phosphate buffered saline at pH 7.4) and shaken for a period of 18 hours at room temperature. After this time any excess solid was removed by double centrifugation to obtain a saturated aqueous solution. The amount of compound solubilised was quantified by HPLC-UV or LC-MS against a standard calibration curve.
The solubility data generated are set out below. Where a greater than figure is quoted, all available compound was solubilised and saturation was not achieved in the conditions employed.
As usually defined, the solubility is how much of the substance goes into solution per volume. `N#Cc1cc(S(=O)(=O)Nc2ncns2)ccc1Oc1ccc(-c2cccc(C(F)(F)F)c2)cc1-c1ccnc(CNCCC2CCNCC2)c1` [Example 18b, 3-Cyano-4-{[3-(2-{[(2-piperidin-4-ylethyl)amino]methyl}pyridin-4-yl)-3′-(trifluoromethyl)biphenyl-4-yl]oxy}-N-1,2,4-thiadiazol-5-ylbenzenesulfonamide trihydrochloride salt] came in with a solubility at 18 h of more than 10 mg/mL.

The data set is the same for the next values; noted with them: aqueous buffer, thermodynamic from solid, pH 7.5, shaken 18 hours at room temperature.
The molecule `COCCOCCOCCOCCOCCOCCOCCOCCOCCOCCOCCOCCNCc1cc(-c2cc(-c3cccc(C(F)(F)F)c3)ccc2Oc2ccc(S(=O)(=O)Nc3ncns3)cc2C#N)ccn1` [Example 12, 3-cyano-4-({3-[2-(2,5,8,11,14,17,20,23,26,29,32,35-dodecaoxa-38-azanonatriacontan-39-yl)pyridin-4-yl]-3′-(trifluoromethyl)biphenyl-4-yl}oxy)-N-(1,2,4-thiadiazol-5-yl)benzenesulfonamide] gave a solubility at 18 h of 0.612 mg/mL (≈ 532 µM).

Another data set concerns the target T1, Nav1.7 (or SCN9A) channel (Homo sapiens, UniProt Q15858).
T1 construct: expressed in transfected cells
The data set is described as follows: Nav1.7 (hSCN9A) channel block, PatchXpress (PX) whole-cell electrophysiology in stably transfected HEK cells. Format: cell-based. To be noted: estimated IC50 from single point electrophysiology data; PatchXpress platform; HEK cells expressing hSCN9A; clamped at V1/2 of inactivation; read-out: Nav1.7 EIC50. As for the experimental part:
The ability of the compounds of formula (I) to block the Nav1.7 (or SCN9A) channel was measured using the assay described below.
Human Embryonic Kidney (HEK) cells were transfected with an hSCN9A construct using lipofectamine reagent (Invitrogen), using standard techniques. Cells stably expressing the hSCN9A constructs were identified by their resistance to G-418 (400 μg/ml). Clones were screened for expression using the whole-cell voltage-clamp technique.
HEK cells stably transfected with hSCN9A were maintained in DMEM medium supplemented with 10% heat-inactivated fetal bovine serum and 400 μg/ml G-418 in an incubator at 37° C. with a humidified atmosphere of 10% CO2. For HTS, cells were harvested from flasks by trypsinization and replated in an appropriate multi-well plate (typically 96 or 384 wells/plate) such that confluence would be achieved within 24 hours of plating. Cells were typically used for electrophysiological experiments within 24 to 72 hours after plating.
For conventional whole-cell voltage clamp experiments cells were removed from the culture flask by brief trypsinization and re-plated at low density onto glass cover slips. Cover slips containing HEK cells expressing hSCN9A were placed in a bath on the stage of an inverted microscope and perfused (approximately 1 ml/minutes) with extracellular solution of the following composition: 138 mM NaCl, 2 mM CaCl2, 5.4 mM KCl, 1 mM MgCl2, 10 mM glucose, and 10 mM HEPES, pH 7.4, with NaOH. […] The osmolarity of the extracellular and intracellular solutions was 300 mOsm/kg and 295 mOsm/kg, respectively. All recordings were made at room temperature (22-24° C.) using AXOPATCH 200B amplifiers and PCLAMP software (Axon Instruments, Burlingame, Calif.). hSCN9A currents in HEK cells were measured using the whole-cell configuration of the patch-clamp technique (Hamill et al., 1981). Uncompensated series resistance was typically 2 to 5 mega ohms and >85% series resistance compensation was routinely achieved. […] Current records were acquired at 20 to 50 KHz and filtered at 5 to 10 KHz.
HEK cells stably transfected with hSCN9A were viewed under Hoffman contrast optics and placed in front of an array of flow pipes emitting either control or compound-containing extracellular solutions.
The voltage-dependence of inactivation was determined by applying a series of depolarizing prepulses (8 sec long in 10 mV increments) from a negative holding potential. The voltage was then immediately stepped to 0 mV to assess the magnitude of the sodium current. Currents elicited at 0 mV were plotted as a function of prepulse potential to allow estimation of the voltage at which 50% of the channels were inactivated (midpoint of inactivation or V1/2). Compounds were tested for their ability to inhibit hSCN9A sodium channels by activating the channel with a 20 msec voltage step […] to 0 mV following an 8 second conditioning prepulse to the empirically determined V1/2. Compound effect (% inhibition) was determined by difference in current amplitude before and after application of test compounds. For ease of comparison, “estimated IC-50” (EIC50) values were calculated from single point electrophysiology data by the following equation, (tested concentration, nM)×(100-% inhibition/% inhibition). Inhibition values <20% and >80% were excluded from the calculation.
Electrophysiological assays were conducted with PatchXpress 7000 hardware and associated software (Molecular Devices Corp). All assay buffers and solutions were identical to those used in conventional whole-cell voltage clamp experiments described above. hSCN9A cells were grown as above to 50%-80% confluency and harvested by trypsinization. Trypsinized cells were washed and resuspended in extracellular buffer at a concentration of 1×10^6 cells/ml. The onboard liquid handling facility of the PatchXpress was used for dispensing cells and application of test compounds.
For `COCCOCCOCCOCCOCCOCCOCCOCCOCCOCCOCCOCCNCc1cc(-c2cc(-c3cccc(C(F)(F)F)c3)ccc2Oc2ccc(S(=O)(=O)Nc3ncns3)cc2C#N)ccn1` [Example 12, 3-cyano-4-({3-[2-(2,5,8,11,14,17,20,23,26,29,32,35-dodecaoxa-38-azanonatriacontan-39-yl)pyridin-4-yl]-3′-(trifluoromethyl)biphenyl-4-yl}oxy)-N-(1,2,4-thiadiazol-5-yl)benzenesulfonamide], the pIC50 is 8.64.

As to `COCCOCCOCCOCCOCCOCCOCCOCCOCCOCCOCCOCCC(=O)N1CCC(CCNCc2cc(-c3cc(-c4cccc(C(F)(F)F)c4)ccc3Oc3cc(F)c(S(=O)(=O)Nc4nncs4)cc3Cl)ccn2)CC1` [Example 33, 5-chloro-2-fluoro-4-{[3-{2-[({2-[1-(38-oxo-2,5,8,11,14,17,20,23,26,29,32,35-dodecaoxaoctatriacontan-38-yl)piperidin-4-yl]ethyl}amino)methyl]pyridin-4-yl}-3′-(trifluoromethyl)biphenyl-4-yl]oxy}-N-(1,3,4-thiadiazol-2-yl)benzenesulfonamide formate salt], the pIC50 is 8.77. On to `COCCOCCOCCOCCOCCOCCOCCOCCOCCOCCOCCOCCC(=O)N1CCN(c2cc(-c3cc(-c4ccc(C(F)(F)F)cc4)ccc3Oc3cc(F)c(S(=O)(=O)Nc4nncs4)cc3Cl)ccn2)CC1` [Example 32, 5-chloro-2-fluoro-4-{[3-{2-[4-(38-oxo-2,5,8,11,14,17,20,23,26,29,32,35-dodecaoxaoctatriacontan-38-yl)piperazin-1-yl]pyridin-4-yl}-4′-(trifluoromethyl)biphenyl-4-yl]oxy}-N-(1,3,4-thiadiazol-2-yl)benzenesulfonamide], for which the pIC50 is 7.80. In the case of `COCCOCCOCCOCCOC1CN(Cc2cc(-c3cc(-c4cccc(C(F)(F)F)c4)ccc3Oc3ccc(S(=O)(=O)Nc4ncns4)cc3C#N)ccn2)C1` [Example 20, hemi trifluoroacetate salt], the pIC50 was 9.00.

Regarding `COCCOCCOCCOCCNC(=O)OCc1cc(-c2cc(-c3cccc(C(F)(F)F)c3)ccc2Oc2ccc(S(=O)(=O)Nc3ncns3)cc2C#N)ccn1` [Example 11, (4-(4-(4-(N-(1,2,4-thiadiazol-5-yl)sulfamoyl)-2-cyanophenoxy)-3′-(trifluoromethyl)-[1,1′-biphenyl]-3-yl)pyridin-2-yl)methyl (2,5,8,11-tetraoxatridecan-13-yl)carbamate], the pIC50 was 7.98. As to `N#Cc1cc(S(=O)(=O)Nc2ncns2)ccc1Oc1ccc(-c2ccccc2)cc1-c1cccc(CNCCC2CCNCC2)c1` [Example 5, 3-Cyano-4-[(3″-{[(2-piperidin-4-ylethyl)amino]methyl}-1,1′:3′,1″-terphenyl-4′-yl)oxy]-N-1,2,4-thiadiazol-5-ylbenzenesulfonamide sodium salt], the pIC50 was 8.82. The same measure, in the same setting: then `COCCOCCOCCOCCOCCOCCOCCOCCOCCOCCOCCOCCC(=O)N1CCN(c2cc(-c3cc(-c4ccc(C(F)(F)F)cc4)ccc3Oc3ccc(S(=O)(=O)Nc4ncns4)cc3C#N)ccn2)CC1` [Example 24, 4-((3-(2-(4-(2,5,8,11,14,17,20,23,26,29,32,35-dodecaoxaoctatriacontan-38-oyl)piperazin-1-yl)pyridin-4-yl)-4′-(trifluoromethyl)-[1,1′-biphenyl]-4-yl)oxy)-3-cyano-N-(1,2,4-thiadiazol-5-yl)benzenesulfonamide], with 7.87; and `COCCOCCOCCOCCO[C@H]1CCN(Cc2cc(-c3cc(-c4cccc(C(F)(F)F)c4)ccc3Oc3ccc(S(=O)(=O)Nc4ncns4)cc3C#N)ccn2)C1` [Example 22, (S)-4-((3-(2-((3-((2,5,8,11-tetraoxatridecan-13-yl)oxy)pyrrolidin-1-yl)methyl)pyridin-4-yl)-3′-(trifluoromethyl)-[1,1′-biphenyl]-4-yl)oxy)-3-cyano-N-(1,2,4-thiadiazol-5-yl)benzenesulfonamide hemi-trifluoroacetate salt], with 8.59; and `COCCOCCOCCOCCNC(=O)NCc1cc(-c2cc(-c3cccc(C(F)(F)F)c3)ccc2Oc2ccc(S(=O)(=O)Nc3ncns3)cc2C#N)ccn1` [Example 9, 3-cyano-4-((3-(2-(3-oxo-7,10,13,16-tetraoxa-2,4-diazaheptadecyl)pyridin-4-yl)-3′-(trifluoromethyl)-[1,1′-biphenyl]-4-yl)oxy)-N-(1,2,4-thiadiazol-5-yl)benzenesulfonamide triethylammonium salt], with 7.96. `CC(=O)N1CCC(CCNCc2cccc(-c3cc(-c4ccccc4)ccc3Oc3ccc(S(=O)(=O)Nc4ncns4)cc3C#N)c2)CC1` [Example 16, 4-{[3″-({[2-(1-Acetylpiperidin-4-yl)ethyl]amino}methyl)-1,1′:3′,1″-terphenyl-4′-yl]oxy}-3-cyano-N-1,2,4-thiadiazol-5-ylbenzenesulfonamide]: the pIC50 was 9.05. Same read-out and setting: then `COCCOCCOCCOCCOCc1cc(-c2cc(-c3cccc(C(F)(F)F)c3)ccc2Oc2ccc(S(=O)(=O)Nc3ncns3)cc2C#N)ccn1` [Example 13, 3-cyano-4-({3-[2-(2,5,8,11,14-pentaoxapentadec-1-yl)pyridin-4-yl]-3′-(trifluoromethyl)biphenyl-4-yl}oxy)-N-(1,2,4-thiadiazol-5-yl)benzenesulfonamide], with 7.89. The same measure, in the same setting: then `COCCOCCOCCOCCNCCOCc1cc(-c2cc(-c3cccc(C(F)(F)F)c3)ccc2Oc2ccc(S(=O)(=O)Nc3ncns3)cc2C#N)ccn1` [Example 10, 4-((3-(2-(2,8,11,14,17-pentaoxa-5-azaoctadecyl)pyridin-4-yl)-3′-(trifluoromethyl)-[1,1′-biphenyl]-4-yl)oxy)-3-cyano-N-(1,2,4-thiadiazol-5-yl)benzenesulfonamide], with 8.33; and `COCCOCCOCCOC(=O)NCc1cc(-c2cc(-c3cccc(C(F)(F)F)c3)ccc2Oc2ccc(S(=O)(=O)Nc3ncns3)cc2C#N)ccn1` [Example 8, 2-[2-(2-methoxyethoxy)ethoxy]ethyl [(4-{4-[2-cyano-4-(1,2,4-thiadiazol-5-ylsulfamoyl)phenoxy]-3′-(trifluoromethyl)biphenyl-3-yl}pyridin-2-yl)methyl]carbamate triethylammonium salt], with 8.47; and `COCCOCCOCCOCCOC1CCN(Cc2cc(-c3cc(-c4cccc(C(F)(F)F)c4)ccc3Oc3ccc(S(=O)(=O)Nc4ncns4)cc3C#N)ccn2)CC1` [Example 23, 4-((3-(2-((4-((2,5,8,11-tetraoxatridecan-13-yl)oxy)piperidin-1-yl)methyl)pyridin-4-yl)-3′-(trifluoromethyl)-[1,1′-biphenyl]-4-yl)oxy)-3-cyano-N-(1,2,4-thiadiazol-5-yl)benzenesulfonamide trifluoroacetate salt], with 8.30.
